Earlier results as cited in PMC9227077, “Prediction Models for Brain Distribution of Drugs Based on Biomimetic Chromatographic Data” (Molecules, 2022).
Read-outs that look alike come from different tables or passages of the source.

Legend:
[1] = parameters: method as in ref 23, 24, 27, 29, 45 (a number printed in a supplementary file, which may have a reference list of its own: not looked up in the article's list); settings: 100% aqueous mobile phase, previously obtained in authors' laboratory, cited from earlier work
[2] = experimental, cited from earlier work; for logP: octanol-water partition coefficient
[3] = cited from earlier work
[4] = test system: human serum albumin; parameters: method as in ref 45 (a number printed in a supplementary file, which may have a reference list of its own: not looked up in the article's list); settings: cited from earlier work
[5] = most values in rats, average if more than one value; cited from earlier work
[6] = test system: α1 acid glycoprotein; parameters: method as in ref 23, 24, 27, 29, 45 (a number printed in a supplementary file, which may have a reference list of its own: not looked up in the article's list); settings: pH=7.4, 100% aqueous mobile phase; previously obtained in authors' laboratory; cited from earlier work
[7] = rat brain tissue; cited from earlier work
[8] = literature Kp,brain converted to logBB
[9] = total brain/total plasma, preferably rat studies
[10] = pH=7.4, isocratic, 10% acetonitrile, available for 37 compounds, remaining calculated by equation

Row | SMILES | logkw IAM ([1]; pH=5.0, PBS) | logkw IAM ([1]; pH=7.4, PBS) | logP [2] | logD ([2]; pH=5.0, octanol-water) | logD ([2]; pH=7.4, octanol-water) | logBB exper. [3, 8] | Kp,brain [3, 9] | logk10,HSA [4, 10] | fu,brain [5] | Kp,brain ([3]; rat, in vivo) | logBB exper. ([3]; rat, in vivo) | logkwAGP [6] | Kp,uu,brain [7] | logk10,HSA [4]
1 | CNCCCC12CCC(c3ccccc31)c1ccccc12 [Maprotiline] | 2.25 | 2.81 | 4.14 | 1.19 | 1.44 | 1.76 | 57.54 | 0.80 | 0.006 | – | – | – | – | –
2 | CC(C)NCC(O)COc1cccc2[nH]ccc12 (stereo not drawn) [Pindolol] | – | – | – | -1.15 | -0.21 | -0.14 | 0.72 | -0.03 | 0.400 | – | – | – | – | –
3 | CCC1(c2ccccc2)C(=O)NC(=O)NC1=O [Phenobarbital] | 0.71 | 0.28 | – | 1.47 | 1.14 | – | – | -0.22 | – | 0.72 | -0.14 | 1.10 | – | –
4 | Cn1c(=O)c2c(ncn2C)n(C)c1=O [Caffeine] | – | 0.26 | – | – | – | – | – | – | – | – | – | – | 0.77 | –
5 | Nc1nc2c(ncn2COCCO)c(=O)[nH]1 [Acyclovir] | -1.37 | -1.15 | -1.56 | -1.56 | -1.56 | – | – | – | – | – | – | – | – | –
6 | Cc1nc2n(c(=O)c1CCN1CCC(c3noc4cc(F)ccc34)CC1)CCCC2 [Risperidone] | – | 2.49 | – | – | – | – | – | 0.13 | – | – | – | – | 0.08 | –
7 | O=C1Nc2ccc(Cl)cc2C(c2ccccc2Cl)=NC1O (stereo not drawn) [Lorazepam] | 2.01 | 2.03 | – | – | – | 0.47 | 2.95 | 0.67 | – | – | – | 1.33 | – | –
8 | CN(C)CCCN1c2ccccc2CCc2ccc(Cl)cc21 [Clomipramine] | 2.49 | 3.29 | 5.46 | 2.19 | 3.30 | 1.34 | 21.88 | – | 0.004 | – | – | 2.70 | – | –
9 | CN1[C@@H]2C[C@@H](OC(=O)[C@H](CO)c3ccccc3)C[C@H]1[C@@H]1O[C@@H]12 [Scopolamine] | 0.73 | 1.15 | – | – | – | – | – | – | – | – | – | – | – | –
10 | CN(C)CCCN1c2ccccc2CCc2ccccc21 [Imipramine] | 2.05 | 2.73 | – | – | – | 0.83 | 6.76 | – | 0.035 | – | – | – | – | –
11 | CN1[C@@H]2CC[C@H]1C[C@@H](OC(=O)C(CO)c1ccccc1)C2 (stereo partly drawn) [Atropine] | – | 1.05 | – | – | – | – | – | – | – | – | – | – | – | –
12 | COc1ccc2cc([C@H](C)C(=O)O)ccc2c1 [Naproxen] | 1.71 | 0.98 | – | – | – | – | – | – | – | – | – | – | – | –
13 | CCOc1nc2cccc(C(=O)O)c2n1Cc1ccc(-c2ccccc2-c2nnn[nH]2)cc1 [Candesartan] | 1.57 | 1.00 | 3.36 | 1.00 | -1.35 | -1.4 | 0.04 | 0.42 | – | – | – | 0.09 | – | –
14 | CN1CC[C@]23c4c5ccc(O)c4O[C@H]2[C@@H](O)C=C[C@H]3[C@H]1C5 [Morphine] | 0.10 | 0.63 | – | – | – | – | – | – | – | – | – | – | – | –
15 | COC(=O)[C@H]1[C@@H](OC(=O)c2ccccc2)C[C@@H]2CC[C@H]1N2C [Cocaine] | – | 1.90 | 3.01 | -0.96 | 1.07 | – | – | 0.33 | – | 3.98 | 0.6 | – | 0.37 | –
16 | CC(=O)Oc1ccccc1C(=O)O [Acetylsalicylic acid] | -0.48 | -0.81 | – | -0.29 | -1.20 | -0.5 | 0.32 | 0.38 | – | – | – | – | – | –
17 | CNCCC(Oc1ccc(C(F)(F)F)cc1)c1ccccc1 (stereo not drawn) [Fluoxetine] | 2.46 | 2.98 | 4.26 | – | – | 0.72 | 5.25 | – | – | – | – | 2.10 | – | –
18 | CC(C)NCC(O)COc1ccc(CC(N)=O)cc1 (stereo not drawn) [Atenolol] | -0.20 | 0.51 | – | – | – | – | – | – | – | – | – | – | – | –
19 | CC(=O)[C@H]1CC[C@H]2[C@@H]3CCC4=CC(=O)CC[C@]4(C)[C@H]3CC[C@]12C [Progesterone] | – | 3.06 | – | 3.89 | 3.48 | – | – | 0.84 | 0.046 | – | – | – | – | –
20 | CC1COc2c(N3CCN(C)CC3)c(F)cc3c(=O)c(C(=O)O)cn1c23 (stereo not drawn) [Ofloxacin] | 1.35 | 1.30 | – | -1.31 | – | – | – | – | – | – | – | – | 0.12 | -0.65
